Data published in article PMC11931604 (Drug Development Research, 2025).

Molecular target: D112_2N-mutant H3 HA (A/X-31) (Influenza A virus, UniProt P03438, D457N)
Type: cell-based, influenza A/H3N2 virus

Structure (SMILES): CC1CCC2(CC1)SC(C)C(=O)N2NC(=O)c1ccc(C(C)(C)C)cc1 (stereo not shown) [Compound 2c, 4‐(tert‐Butyl)‐N‐(2,8‐dimethyl‐3‐oxo‐1‐thia‐4‐azaspiro[4.5]decan‐4‐yl)benzamide]
- inhibition of membrane fusion in cells expressing D112_2N-substituted HA: no inhibition
